Experiments:
[1] = target: T1, Polyunsaturated fatty acid 5-lipoxygenase (Homo sapiens, UniProt P09917); test: Inhibition of 5-lipoxygenase in human polymorphonuclear leukocytes assessed as reduction in A23187 and AA-stimulated 5-LO product formation preincubated for 15 mins prior stimulation measured after 10 mins by HPLC analysis; assay type: cell-based
T1 sequence (P09917 whole entry): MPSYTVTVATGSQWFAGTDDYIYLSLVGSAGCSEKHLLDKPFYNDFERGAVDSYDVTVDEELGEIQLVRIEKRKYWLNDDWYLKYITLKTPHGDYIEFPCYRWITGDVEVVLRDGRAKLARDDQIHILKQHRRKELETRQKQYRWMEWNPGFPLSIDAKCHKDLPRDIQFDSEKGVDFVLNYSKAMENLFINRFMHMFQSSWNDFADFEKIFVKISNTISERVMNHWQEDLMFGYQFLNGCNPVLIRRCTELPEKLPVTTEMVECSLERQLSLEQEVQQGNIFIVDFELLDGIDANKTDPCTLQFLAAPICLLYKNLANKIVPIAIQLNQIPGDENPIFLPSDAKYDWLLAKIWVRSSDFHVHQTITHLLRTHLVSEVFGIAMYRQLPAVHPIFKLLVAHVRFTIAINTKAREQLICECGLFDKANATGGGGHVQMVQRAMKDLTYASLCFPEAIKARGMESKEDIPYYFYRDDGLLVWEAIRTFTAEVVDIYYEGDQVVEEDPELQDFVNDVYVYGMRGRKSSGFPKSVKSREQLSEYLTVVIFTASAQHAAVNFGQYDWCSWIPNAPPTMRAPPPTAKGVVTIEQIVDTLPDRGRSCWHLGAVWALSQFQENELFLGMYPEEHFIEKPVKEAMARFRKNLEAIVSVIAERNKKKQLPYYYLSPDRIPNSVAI

[2] = target: T1, Polyunsaturated fatty acid 5-lipoxygenase; test: Inhibition of 5-lipoxygenase in S100 cell free fraction of human polymorphonuclear leukocytes assessed as reduction in 5-LO product formation preincubated for 15 mins measured after 10 mins by HPLC analysis; assay type: cell-based

| IC50 [1] | IC50 [2] | Compound |
| --- | --- | --- |
| 7.2 µM | 7.7 µM | Cc1ccc2nc(-c3ccncc3)c(NC3CCCCC3)n2c1 |
| 0.9 µM | – | Cc1ccc(-c2nc3cc(C)ccn3c2NC2CCCC2)cc1 |
| 1.53 µM | > 30 µM | Cc1ccc2nc(-c3ccc([N+](=O)[O-])cc3)c(NC3CCCCC3)n2c1 |
| 0.6 µM | – | Cc1ccc2nc(-c3ccc(N(C)C)cc3)c(NC3CCCCC3)n2c1 |
| 1.8 µM | 21.6 µM | CCOc1ccc2[nH]c(=O)c(-c3nc4ccc(C)cn4c3NC3CCCCC3)cc2c1 |
| 1.2 µM | 5.8 µM | Clc1ccc2nc(-c3ccc(N4CCOCC4)cc3)n(CC3CCCCC3)c2c1 |

| Compound | IC50 [1] | IC50 [2] |
| --- | --- | --- |
| CN(C)c1ccc(-c2nc3ccc(Cl)cc3n2CC2CCCCC2)cc1 | 0.5 µM | > 10 µM |
